Test results as given in patent US20090036363A1, “Peptides as cell penetrating carriers” (priority 2004, published 2009).
Ends that are not written are not given here.

How the values were obtained:
Format in all cases: cell-based, human
[1] = Peptides toxicity assay (MTT assay), HeLa viability and proliferation; details: human, HeLa cells, MTT, 24 h incubation, read-out: cell viability; for viability at 24 h, 50 µM: peptide at 50 μM (FIG. 3B); for viability at 24 h, 500 µM: peptide at 500 μM (FIG. 3B)
Experimental: (§1) HeLa viability and proliferation in the presence of peptides was tested using a 3-(4,5-dimethylthiazol-2-yl)-2,5-diphenyltetrazolium bromide (MTT) assay.
(§2) (cf. “MTT-cell proliferation assay” Cell Biology: A Laboratory Handbook, Academic Press, 1998, Second Ed. vol.1; Y. Liu et al., “Mechanism of cellular 3-(4,5-dimethylthiazol-2-yl)-2,5-diphenyltetrazolium bromide (MTT) reduction”, J. Neurochem. 1997 vol. 69 pp. 581-93).
(§3) For each assay 7×10^3 cells/cm^2 were seeded on a 96-well plate (Nange Nunc) (100 μl/hole) and cultured for 24 h. In order to avoid saturation in cell growth after 24 h of peptide incubation, 7×10^3 cells/cm^2 were used in the proliferation measurement (instead of 21.4×10^3 cells/cm^2 seeded in previous experiments). After complete adhesion to the plate, the culture medium was discarded. Peptides were added at growing concentrations of 50, 100, 500, and 1000 μM. The cells were incubated for 3 h or 24 h at 37° C. under 5% CO2 atmosphere. MTT was added 2 h before the final incubation time, i.e., after 1 h for the 3 h incubation time and after 22 h for the 24 h incubation time at a final concentration per hole of 0.5 mg/ml. The cells with peptide and MTT were incubated for a further 2 h and then the medium was discarded by aspiration. Isopropanol was added to dissolve formazan, a dark blue coloured crystal observed in the wells. Absorbance was measured at λ=570 nm, 30 min after the addition of isopropanol. The cell viability was expressed as a percent ratio of cells treated with peptide against cells untreated used as control.

HeLa cells [2] = test: as above; details: for cytotoxicity (result in words): MTT staining, 24 h incubation with HeLa cells, concentrations up to 1000 μM (FIG. 3A, 3B)
Experimental: as §1, §2, §3

HeLa cells [3] = test: Microplate fluorimeter reader assay (cellular uptake of carboxyfluoresceinated peptides)
Experimental: Comparative properties of labelled peptides for translocation through the cell membrane were checked with HeLa human cell line. First, the extent of the uptake of the monomers, dimers and trimers at 50 μM concentration in HeLa cells was quantified using a fluorescence microplate reader assay. A dose-response analysis was then undertaken, incubating HeLa cells with the peptides at different concentrations. The cellular uptake of the new peptides was also studied by confocal laser scanning microscopy (CLSM).
HeLa cells were obtained from ATCC. They were maintained in DMEM ([…]) culture medium (Biological Industries) containing 10% Fetal Calf Serum (FCS), 2 mM glutamine, 50 u/ml penicillin and […] streptomycin. For confocal microscopy experiments, exponentially growing HeLa cells were detached from the culture flasks using a trypsin-0.25% EDTA solution and the cell suspension was seeded at a concentration of 21.4×10^3 cells/cm^2 onto glass coverslips or onto 8-well Lab-Teck™ chambered coverglass or on 96-well plate (Nalge Nunc International). Experiments were carried out 24 h later, when the confluence was about 60-70%. The carboxyfluoresceinated compounds were dissolved in PBS and sterilized with 0.22 μm filters (Millex-GV, PVDF, Durapore, Millipore). The peptides and 5(6)-carboxyfluorescein stock solutions were diluted in the cell culture medium. Non-adherent cells were washed away and attached cells were incubated at 37° C. in CO2 atmosphere in DMEM medium with a known concentration of peptides for 3 h.
For each assay, 21.4×10^3 cells/cm^2 were seeded and cultured for 24 h. After complete adhesion to the plate, the culture medium was changed. […] The measurement of fluorescence emitted was carried out after 30 min incubation with lysis buffer in a FL600 Microplate Fluorescence Reader (Bio-Tek). Fluorescence was measured at a λexcitation=485/20 nm and a λemission=530/25 nm. A triplicate of each peptide or carboxyfluorescein concentration was performed and the fluorescence emitted for the blanks (cells with culture medium and without peptides) was subtracted. […]

Row | Compound | viability at 24 h, 50 µM [1] [%] | viability at 24 h, 500 µM [1] [%] | cytotoxicity (result in words) (HeLa cells [2]) | concentration at which cytotoxic (HeLa cells [2]) [µM] | also measured
1 | CC[C@H](C)[C@H](NC(=O)[C@H](CCCCN)NC(=O)[C@@H](NC(=O)[C@H](CCC(N)=O)NC(=O)[C@H](CCCNC(=N)N)NC(=O)c1ccc2c(c1)C(=O)OC21c2ccc(O)cc2Oc2cc(O)ccc21)[C@@H](C)CC)C(=O)N[C@@H](Cc1c[nH]c2ccccc12)C(=O)N[C@@H](Cc1ccccc1)C(=O)N[C@@H](CCC(N)=O)C(=O)N[C@@H](CC(N)=O)C(=O)N[C@@H](CCCNC(=N)N)C(=O)N[C@@H](CCCNC(=N)N)C(=O)N[C@@H](CCSC)C(=O)N[C@@H](CCCCN)C(=O)N[C@@H](Cc1c[nH]c2ccccc12)C(=O)N[C@@H](CCCCN)C(=O)N[C@@H](CCCCN)C(N)=O [CF-Antp-NH2] | 75 | 11 | cytotoxic at relatively low concentrations | – | –
2 | (Arg-Lys-Lys-Arg-Arg-Gln-Arg-Arg-Arg)-NH2 (RKKRRQRRR-NH2) [Tat] | – | – | – | 50 | –
3 | N=C(N)NCCC[C@H](NC(=O)[C@H](CCCNC(=N)N)NC(=O)[C@H](CCCNC(=N)N)NC(=O)[C@H](CCC(N)=O)NC(=O)[C@H](CCCNC(=N)N)NC(=O)[C@H](CCCNC(=N)N)NC(=O)[C@H](CCCCN)NC(=O)[C@H](CCCCN)NC(=O)[C@H](CCCNC(=N)N)NC(=O)c1ccc2c(c1)C(=O)OC21c2ccc(O)cc2Oc2cc(O)ccc21)C(N)=O [CF-Tat-NH2] | 64 | 40 | cytotoxic at relatively low concentrations | – | –
4 | CC[C@H](C)[C@H](NC(=O)[C@H](CCCCN)NC(=O)[C@@H](NC(=O)[C@H](CCC(N)=O)NC(=O)[C@@H](N)CCCNC(=N)N)[C@@H](C)CC)C(=O)N[C@@H](Cc1c[nH]c2ccccc12)C(=O)N[C@@H](Cc1ccccc1)C(=O)N[C@@H](CCC(N)=O)C(=O)N[C@@H](CC(N)=O)C(=O)N[C@@H](CCCNC(=N)N)C(=O)N[C@@H](CCCNC(=N)N)C(=O)N[C@@H](CCSC)C(=O)N[C@@H](CCCCN)C(=O)N[C@@H](Cc1c[nH]c2ccccc12)C(=O)N[C@@H](CCCCN)C(=O)N[C@@H](CCCCN)C(N)=O [Antp, (Arg-Gln-Ile-Lys-Ile-Trp-Phe-Gln-Asn-Arg-Arg-Met-Lys-Trp-Lys-Lys)-NH2] | – | – | – | 50 | –
5 | CF-(Val-Arg-Leu-Pro-Pro-Pro)3 | – | – | – | – | fluorescence emitted (uptake) compared with the other CF-(Val-X-Leu-Pro-Pro-Pro)n peptides (HeLa cells [3]; HeLa cells incubated 3 h at 50 μM, X=Arg and His, n=1-3 (FIG. 2A)): higher fluorescence intensity; degree of internalization measured against CF-Antp-NH2 (HeLa cells [3]; HeLa cells, relative to CF-Antp-NH2): 20 times lower; degree of internalization measured against CF-Tat-NH2 (HeLa cells [3]; HeLa cells, relative to CF-Tat-NH2): 15 times lower
